What all share (experiment): NCI anticancer screen, dose series, 48 h
Assay [1] relates to HCC-2998 colon.
The subject of assay [2] is OVCAR-4 ovarian.
Assay [3] has as its system A498 renal.

62 compounds from PubChem BioAssay (NCI) can be followed below.

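Five compound concentrations were applied to cells in 96-well plates for 48 hours; endpoints were derived by simple linear interpolation of the resulting dose-response curve. At the GI50, growth is halved. TGI marks complete inhibition of growth.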

For the compound `Cn1c(=O)c2[nH]c(Nc3cccc(Cl)c3)nc2n(C)c1=O`, the TGI in assay [1] and in assay [2] was over 10 µM in each case.
For the compound `COc1ccccc1Cn1c2c(c3cc(O)ccc31)C(=O)c1ccccc1C2=O`, the TGI was over 100 µM in assay [3] and 12 µM in assay [2].
Turning to `CCC1(c2ccc(OC)c(OC)c2)CCN2C(=O)C(O)CC21` (stereo not given), the TGI in assay [1] and in assay [2] was over 100 µM each time.
Consider `CC(=O)Nc1ccc2c(c1)nc1c3ccccc3ccn21`, for which the TGI in assay [3] and in assay [2] was over 100 µM in each case.
For the compound `CN1C2CCC1C(CO)C(=O)C2` (stereo not given), the TGI in assay [3], in assay [1] and in assay [2] was over 100 µM each time.
Regarding `OC(CCN1CCN(CCOC(c2ccc(F)cc2)c2ccc(F)cc2)CC1)c1ccc(Br)cc1` (stereo not given), the TGI in assay [3] amounted to 8.04 µM; in assay [1], 3.53 µM; in assay [2], 13.9 µM.
On the same counts, the results for `O=C1CCC(CCc2nc3ccccc3[nH]2)(c2ccccc2)C(=O)N1` (stereo not given) are over 100 µM, over 100 µM and over 100 µM.
On the same counts, the results for `Oc1ccc(C[C@@H]2CN[C@H](Cc3ccc(O)c(Br)c3)CN2)cc1` are over 100 µM, over 100 µM and over 100 µM.
`CC1OC2OC3C(OCC(O)C3O)OC(=O)[C@]34CCC(C)(C)CC3C3=CCC5[C@@]6(C)C[C@H](O)[C@H](OC7OC(CO)C(O)C(O)C7OC7OC(COC(=O)CC(C)(O)CC(=O)OC1C(OC1OC(CO)C(O)C(O)C1O)C2O)C(O)C(O)C7O)[C@@](C)(CO)C6CC[C@@]5(C)[C@]3(C)CC4` (stereo not given in full): the TGI in assay [1] turned out to be 2.65 µM; in assay [2], 16.1 µM.
Regarding `Cc1nn(C(=O)c2ccccc2O)c2c1C(c1ccc([N+](=O)[O-])cc1)SC(N)=N2` (stereo not given), the TGI in assay [3], in assay [1] and in assay [2] was over 10 µM in each case.
Turning to `C/C(=C\CO)CC[C@@H]1[C@@]2(C)CCCC(C)(C)[C@@H]2CC[C@@]1(C)O`, the TGI in assay [3] came out at 30.7 µM; in assay [1], 29.5 µM; in assay [2], 34.2 µM.
The matching figures for `CCCCCc1cc(CCCC)sc1-c1ccco1`: over 100 µM, over 100 µM and over 100 µM.
On the same counts, the results for `Brc1ccc2[nH]cc(-c3csc(-c4c[nH]c5ccc(Br)cc45)n3)c2c1` are 6.03 µM, 3.26 µM and 7.59 µM.
With `CCC(C)C(NC(=O)C(CCCC[N+](=N)N)NC(=O)C(CCCC[N+](=N)N)NC(=O)c1ccc(OC)cc1)C(=O)NC(CCCC[N+](=N)N)C(=O)N1CCCC1C(=O)NC(CCCCN)C(=O)NC(CC(C)C)C(N)=O` (stereo not given), the TGI in assay [3], in assay [1] and in assay [2] was over 100 µM each time.
`O=c1cccc2n1CC1CNCC2C1` (stereo not given): the TGI in assay [3], in assay [1] and in assay [2] was over 100 µM each time.
Consider `Cc1ccc(S(=O)(=O)N2CCc3cc(O)c([N+](=O)[O-])cc32)cc1`, for which the TGI in assay [3] and in assay [2] was over 100 µM in each case.
For `Brc1ccc(/C(N=N/C(=N\Sc2ccccc2)c2ccc(Br)cc2)=N/Sc2ccccc2)cc1`, the TGI in assay [3], in assay [1] and in assay [2] was over 100 µM in each case.
On to `O=C(O)C12C3C4(C(=O)O)C1C1(C(=O)O)C2C3(C(=O)O)C41` (stereo not given), for which the TGI in assay [3], in assay [1] and in assay [2] was over 100 µM in each case.
Turning to `C[C@@](Br)(C(=O)O)[C@H](Br)C(=O)O`, the TGI in assay [3], in assay [1] and in assay [2] was over 100 µM throughout.
Take `COC(=O)[C@@H]1[C@H]2CC[C@]3(C)[C@@H](OC(C)=O)CC[C@H]3[C@@H]2CC[C@H]1C1(C)SCCS1`: the TGI was over 100 µM in assay [3], 86.2 µM in assay [1] and 75.2 µM in assay [2].
On the same counts, the results for `CC(C)(C)C#CI1OC(=O)c2ccccc21` are 24 µM, 23.6 µM and 8.08 µM.
On the same counts, the results for `C=CCN(c1cc(OC)c2[nH]c(C(=O)O)c(C)c2c1[N+](=O)[O-])S(C)(=O)=O` are over 100 µM, over 100 µM and over 100 µM.
On to `CCOC(=O)C(NC(=O)CC)(Nc1ccccc1F)C(F)(F)F` (stereo not given), for which the TGI in assay [1] and in assay [2] was over 100 µM each time.
With `CC12CCC(=O)[C@@]1(C)CCCC2=O` (stereo not given in full), the TGI in assay [1] and in assay [2] was over 100 µM in each case.
For the compound `CCc1ccc(OCc2ccccc2C(=O)Nc2ccc3nc(C)cc(N)c3c2)cc1`, in assay [3], the GI50 is 1.5 µM and the TGI worked out at 3 µM. For the same compound, in assay [1], the GI50 is 1.64 µM and the TGI came to 3.24 µM.
With `COc1cccc(Nc2nc3c([nH]2)c(=O)n(C)c(=O)n3C)c1`, the TGI in assay [1] and in assay [2] was over 10 µM throughout.
Regarding `CC(Br)CN(CC(C)Br)c1ccc2c(c1)Cc1ccccc1-2` (stereo not given), the TGI is 26 µM in assay [3] and 25.9 µM in assay [2].
For `Cc1cccc2c(N)c3cccc(C(=O)NCC[N+](C)(C)[O-])c3nc12`, the TGI in assay [1] turned out to be 24.5 µM; in assay [2] it was 28.2 µM.
Regarding `CCOP(=O)(CC1OC(CO)C(O)C1O)OCC` (stereo not given), the TGI in assay [3], in assay [1] and in assay [2] was over 100 µM throughout.
On to `Fc1ccc(OCc2ccc3nc(-c4ccccc4)c(Cl)nc3c2)cc1`, for which the TGI in assay [3] is 50.1 µM; in assay [1], over 100 µM; in assay [2], over 100 µM.
Take `CN(C)CCN1C(=O)N(CCN(C)C)c2c3cc(O)ccc3nc3c([N+](=O)[O-])ccc1c23`: the TGI in assay [3] is 29.6 µM; in assay [1], 25.8 µM; in assay [2], 28.4 µM.
On the same counts, the results for `COc1ccc2c(c1)-c1nc(=S)n(CCN(C)C)c3ccc([N+](=O)[O-])c(c13)N2` are 24.5 µM, 2.15 µM and 13.3 µM.
The matching figures for `O=C(O)Cn1c[n+](NC(=O)Cc2ccccc2)cn1`: over 10 µM, over 10 µM and over 10 µM.
`CC(C)(C)[Si](C)(C)OC1CCOC1(O)c1ccccn1` (stereo not given): the TGI in assay [3], in assay [1] and in assay [2] was over 100 µM each time.
With `Clc1sc(Cl)c2c1[C@H](Br)C[C@@H]2Cl`, the TGI in assay [1] and in assay [2] was over 100 µM in each case.
For `N#Cc1ccnc(C(=O)N2CCCC2C(=O)O)c1` (stereo not given), the TGI in assay [3], in assay [1] and in assay [2] was over 100 µM each time.
Regarding `O=c1[nH]nc(-c2ccc([N+](=O)[O-])cc2)[nH]1`, the TGI in assay [3], in assay [1] and in assay [2] was over 100 µM each time.
For the compound `CCOC(=O)OC1(c2ccccc2)CCN(C)CC1`, the TGI in assay [3], in assay [1] and in assay [2] was over 100 µM in each case.
Consider `COc1cc2c3cc1Oc1cc(ccc1O)C[C@@H]1c4c(cc(OC)c(O)c4Oc4ccc(cc4)C[C@@H]3[N+](C)(C)CC2)CC[N+]1(C)C`, for which the TGI in assay [3] and in assay [2] was over 100 µM in each case.
Consider `CC(=O)Oc1ccc2c(c1)O/C(=C\c1ccc(O)cc1)C2=O`, for which the TGI in assay [1] and in assay [2] was over 100 µM in each case.
As to `O=C(O)CCSc1ncnc2nc[nH]c12`, the TGI in assay [3], in assay [1] and in assay [2] was over 100 µM in each case.
Regarding `O=C1c2cccnc2C(=O)c2c1nc1ccccc1c2-c1ccc2c3c(nc4ccccc42)C(=O)c2cccnc2-c13`, the results for the TGI in assay [3], in assay [1] and in assay [2] were 6.05 µM, 9.28 µM and 14 µM, respectively.
On the same counts, the results for `CCOC(=O)c1c(-c2ccc(OC)cc2)c(C#N)c(=S)n(C2OC(CO)C(O)C(O)C2O)c1C` (stereo not given) are over 100 µM, over 100 µM and over 100 µM.
On the same counts, the results for `CC1=NN(c2cccc(Cl)c2)C2(C1=Cc1ccc(N(C)C)cc1)C(Cl)C(=O)N2c1nc2ccccc2s1` (stereo not given) are over 100 µM, 41.8 µM and over 100 µM.
On to `O/N=C/[C@H]1COC2(CCCCC2)O1`, for which the TGI in assay [3] and in assay [2] was over 100 µM each time.
Turning to `COc1ccc(C(=O)/C=C/c2ccc(OCCCCCCCCCCOc3ccc(/C=C/C(=O)c4ccc(OC)c(OC)c4)cc3)cc2)c(OC)c1`, the TGI in assay [1] and in assay [2] was over 100 µM throughout.
For `COC(=O)Cc1c2n(c3ccccc13)C(=O)N1c3ccccc3C(CC(=O)OC)C21` (stereo not given), the TGI is over 100 µM in assay [3], over 100 µM in assay [1] and 57.1 µM in assay [2].
In the case of `Cn1c2ccccc2c2c3c(=O)[nH][nH]c(=O)c3c3c4ccccc4n(C)c3c21`, the TGI in assay [3], in assay [1] and in assay [2] was over 100 µM in each case.
Consider `COc1ccc2c(c1)CCC(CN1CCN(CCOC(c3ccccc3)c3ccccc3)CC1)C2O` (stereo not given), for which the results for the TGI in assay [3], in assay [1] and in assay [2] were 23.1 µM, 16.1 µM and 33.2 µM, respectively.
Regarding `CC1=[N+]([O-])C2(CCCC2)N(O)C1(C)C`, the TGI in assay [1] and in assay [2] was over 100 µM in each case.
On to `O=C1C=CC(=O)c2c(O)c(N3CCN(c4ncccn4)CC3)c(Cl)c(O)c21`, for which the TGI in assay [3] worked out at 6.49 µM; in assay [1], 25.7 µM; in assay [2], 3.69 µM.
As to `CO[C@H](C)[C@](O)(C(=O)OCC1=CCN2CC[C@@H](O)[C@H]12)C(C)C`, the TGI in assay [3], in assay [1] and in assay [2] was over 100 µM in each case.
For the compound `O=C1CCCC2=C1CC1=C(CCCC1=O)N2c1ccc(-c2ccccc2)cc1`, the TGI in assay [3], in assay [1] and in assay [2] was over 100 µM each time.
Consider `Nn1nnc2ccccc21`, for which the TGI in assay [3], in assay [1] and in assay [2] was over 100 µM each time.
In the case of `O=C1c2cc3c(cc2-c2c1c1cc(F)c(F)cc1c(=O)n2C[C@H](O)CO)OCO3`, the GI50 in assay [3] was 0.0834 µM; in assay [1], 0.14 µM; in assay [2], 0.423 µM. Further, the TGI in assay [3] is 0.254 µM; in assay [1], 11.2 µM; in assay [2], over 100 µM.
For `C[C@@H](CCO)OC1OC(COC(=O)C(C)(C)C)C(OC(=O)C(C)(C)C)C(OC(=O)C(C)(C)C)C1OC(=O)C(C)(C)C` (stereo not given in full), the TGI in assay [3] is over 100 µM; in assay [1], 31.4 µM; in assay [2], over 100 µM.
Consider `O=c1n(CCCN2CCOCC2)nc2n1-c1ccc3ccccc3c1SC2`, for which the TGI in assay [3] and in assay [2] was over 100 µM throughout.
`C=C1C[C@@H]2CC[C@@]34CC5O[C@H]6C(O[C@H]7CC[C@H](CC(=O)O[C@@H]8[C@@H](C)[C@@H]9O[C@@H]%10C[C@]%11(C[C@@H]%12O[C@]%13(C[C@H](C)[C@@H]%14O[C@@H]%15CC(C(COC(C)=O)OC(C)=O)O[C@@H]%15C[C@@H]%14O%13)C[C@H](C)[C@@H]%12O%11)O[C@@H]%10C[C@@H]9O[C@H]8CC8O[C@@H](CC[C@@H]1O2)C[C@@H](C)C8(O)CO)O[C@@H]7[C@@H]6O3)[C@H]5O4` (stereo not given in full): the TGI is over 1 µM in assay [3], over 0.225 µM in assay [1] and over 1 µM in assay [2].
As to `CC(C)NC(=O)OCc1c(COC(=O)NC(C)C)n(C)c2c1ccc1cc(Cl)c(Cl)cc12`, the results for the TGI in assay [3] and in assay [2] were 4.85 µM and 54.8 µM, respectively.
Turning to `CC(=O)OC1COC(N2c3ccccc3[C@@H]3CCc4c([nH]c5ccccc45)[C@@H]32)C(OC(C)=O)C1OC(C)=O` (mixture of isomers), the TGI in assay [3] is 62 µM; in assay [1], over 100 µM; in assay [2], over 100 µM.
Take `C[N+]1(CCCCN2c3ccccc3Sc3cc(N=[N+]=[N-])ccc32)CCN(C(=O)CCNC(=O)Cc2ccc(C(=O)c3ccccc3)cc2)CC1`: the TGI stood at 56.3 µM in assay [3], 39.9 µM in assay [1] and 48.8 µM in assay [2].
`CN(C)CN1C(=O)/C(=N\n2c(-c3ccncc3)n[nH]c2=S)c2ccccc21`: the TGI in assay [3] was over 100 µM; in assay [2], 45.2 µM.
